Common to all, as to type: in vivo
Assay [1] relates to NOD mice. Briefly: Effect of aerosol administration of insulin on diabetes in NOD mice (Example 4). Conditions: 0 to 1 mg insulin in aerosol form by nebulizer. How it is done:
Insulin (0 to 1 mg as in Examples 1 and 2) will be administered to NOD mice as described above in Examples 1 and 2 except in aerosol form by nebulizer.

In assay [2] the test system is NOD mice. Briefly: Treatment of initial stages of diabetes in NOD mice (Example 5). The conditions noted are these: 0 to 1 mg insulin, oral and aerosol, hyperglycemic mice from weeks 12-20 of age. The procedure: Insulin (0 to 1 mg as in Examples 1 and 2) will be administered to NOD mice which are suffering from hyperglycemia in an oral and aerosol form. The treatments will begin by weeks 12-20 of age, by which the serum glucose levels are at hyperglycemic concentrations in a certain percentage of animals prior to onset of diabetes.

The subject of assay [3] is NOD mice. Briefly: Preliminary experiments: insulitis in NOD mice fed insulin. Conditions: fed 1 mg of insulin; data not shown. An excerpt: Therefore, oral administration of insulin to NOD mice appeared to be affecting the infiltration of immune system cells into the pancreas and thus halting disease progression by preserving beta cell function.
Assay [4] has as its system NOD mice. Briefly: Glucose post oral insulin in fasting 7 week NOD mice (Example 2). The conditions noted are these: for blood glucose over the next 24 hours: animals in fasting state; for blood glucose after feeding: fasting 7 week old mice. How it is done: In order to determine whether any endocrinologic (i.e. direct lowering of blood sugar) effects occurred following the feeding of insulin, 7 week old NOD mice (5 mice per group) were fed 1 mg of porcine insulin or 1 mg of myelin basic protein (obtained from Pel Freez, Rogers, Ark.) as a control protein. Blood glucose was then measured over the next 24 hour period. As a positive control, a separate group of animals were injected subcutaneously with 20 micrograms of Porcine insulin. All animals were kept in the fasting state.

For assay [5], the system named is NOD (non-obese diabetic) mice. Briefly: Effect of feeding porcine insulin on spontaneous diabetes in NOD mice (Example 1). The source says:
NOD (non-obese diabetic mice) were obtained from Taconic Laboratories (Germantown, Mass.) at 4 weeks of age. There were a total of 30 animals in each of the groups mentioned below at the beginning of the experiment. At 41/2 weeks of age, animals were orally administered Porcine insulin (Novo Laboratories, Danbury, Conn.). Each animal received two treatments orally twice a week until 9 weeks of age. The mice were fed either saline (control) or 10 micrograms, 100 micrograms, or 1 milligram of Porcine insulin. The animals were fed (gavaged) with an 18 gauge ball-point needle (Popper and Sons, Inc., New Hyde Park, N.Y.). Beginning at 10 weeks the animals were then fed once a week for a total of 33 weeks. Beginning at 12 weeks the urine was tested weekly for the presence of glucose using Glucosuria test tape (Eli Lilly, Indianapolis, Ind.). If an animal tested 3+ or higher on the glucose urine test, a serum sample was taken and blood glucose measured using a glucose analyzer (Beckman). If the blood glucose was 220 or higher, the animals were classified as diabetic and then sacrificed.

“And” between values parts separate entries of the source, which are not always exact repeats. Equal values may be shown once. “Also recorded” adds a separate entry of the source.

As for insulin, the “prevention of symptoms (hyperglycemia) of Type 1 diabetes” value in the assay with NOD mice [1] is “effective in preventing the manifestation of symptoms”. Also, in the assay on NOD mice [2], the beta cell function result was “preservation of beta cell function” and the serum glucose concentrations entry is given as “reduction in serum glucose concentrations to near normal levels”. Besides, the “inflammatory immune system cells surrounding the pancreas (insulitis) vs PBS-fed mice” value in the assay on NOD mice [3] is on record as “fewer inflammatory immune system cells surrounding the pancreas”. Further, in the assay with NOD mice [4] (1 mg fed orally), the “endocrinologic (metabolic) effects of feeding” value was “no endocrinologic (metabolic) effects”, the “blood glucose over the next 24 hours” value is “gradual decrease in blood glucose” and the “blood glucose after feeding” value is recorded as “no drop in the blood glucose”. In addition, in the assay with NOD mice [4] (20 micrograms porcine insulin injected subcutaneously (positive control), fasting), the “decrease in the glucose level” value is listed as “approximately 80 mg %”. For the same substance, the “period over which the drop in glucose persisted” value with NOD mice [4] (20 micrograms porcine insulin subcutaneously, fasting) was determined as 4 h. In assay [5] (1 mg porcine insulin fed orally (gavage), diabetic = blood glucose 220 or higher), the development of diabetes result is on record as “none of the mice went on to develop diabetes; also recorded: no diabetes developed in any of the animals; also recorded: None of the animals developed diabetes”. The development of diabetes result in assay [5] (10 micrograms porcine insulin fed orally) is reported as “diabetes developed”. Also, the “incidence of diabetes, all oral doses tested” value in assay [5] (10 micrograms, 100 micrograms, 1 mg oral, dose-dependent) is recorded as “lower incidence of diabetes at all doses; also recorded: reduced the numbers of these mice which subsequently went on to develop diabetes”. Also, the development of diabetes result in assay [5] (100 micrograms porcine insulin fed orally) is reported as “diabetes developed”. The “blood sugar of individual animals which developed diabetes” value in assay [5] (fed 10 micrograms of insulin) was 330 mg/dL and 420 mg/dL and 315 mg/dL and 459 mg/dL and 520 mg/dL and 487 mg/dL. In assay [5] (fed 100 micrograms of insulin), the “blood sugar of individual animals that became diabetic” value was 500 mg/dL and 290 mg/dL and 600 mg/dL and 450 mg/dL. Also, the “treated animals that failed to develop diabetes” value in assay [5] (highest dose of oral insulin (1 mg)) worked out at 100%.
With myelin basic protein, in the assay with NOD mice [4] (1 mg fed orally), the “blood glucose over the next 24 hours” value was “gradual decrease in blood glucose” and the “blood glucose after feeding” value is recorded as “no drop in the blood glucose”.
